Experimental data reported in PubChem BioAssay (NCI).
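Method: 48-hour compound exposure of cells in 96-well plates, five concentrations, linear interpolation of endpoints. TGI: total growth inhibition.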

How the values were obtained:
Test in all cases: DTP human tumour cell line panel, 48 h
786-0 renal = system: 786-0 renal
A498 renal = system: A498 renal
A549 NSCLC = system: A549 NSCLC
ACHN renal = system: ACHN renal
BT-549 breast = system: BT-549 breast
CAKI-1 renal = system: CAKI-1 renal
CCRF-CEM leukemia = system: CCRF-CEM leukemia
COLO 205 colon = system: COLO 205 colon
DU-145 prostate = system: DU-145 prostate
EKVX NSCLC = system: EKVX NSCLC
HCC-2998 colon = system: HCC-2998 colon
HCT-116 colon = system: HCT-116 colon
HCT-15 colon = system: HCT-15 colon
HL-60(TB) leukemia = system: HL-60(TB) leukemia
HOP-62 NSCLC = system: HOP-62 NSCLC
HS 578T breast = system: HS 578T breast
HT29 colon = system: HT29 colon
IGROV1 ovarian = system: IGROV1 ovarian
K-562 leukemia = system: K-562 leukemia
KM12 colon = system: KM12 colon
LOX IMVI melanoma = system: LOX IMVI melanoma
M14 melanoma = system: M14 melanoma
MALME-3M melanoma = system: MALME-3M melanoma
MCF7 breast = system: MCF7 breast
MDA-MB-231 breast = system: MDA-MB-231 breast
MDA-MB-435 = system: MDA-MB-435
MDA-N = system: MDA-N
MOLT-4 leukemia = system: MOLT-4 leukemia
NCI-H23 lung = system: NCI-H23 lung
NCI-H460 lung = system: NCI-H460 lung
NCI-H522 lung = system: NCI-H522 lung
NCI/ADR-RES ovarian = system: NCI/ADR-RES ovarian
OVCAR-3 ovarian = system: OVCAR-3 ovarian
OVCAR-4 ovarian = system: OVCAR-4 ovarian
OVCAR-5 ovarian = system: OVCAR-5 ovarian
OVCAR-8 ovarian = system: OVCAR-8 ovarian
PC-3 prostate = system: PC-3 prostate
RPMI-8226 leukemia = system: RPMI-8226 leukemia
RXF 393 renal = system: RXF 393 renal
SF-295 CNS = system: SF-295 CNS
SF-539 CNS = system: SF-539 CNS
SK-MEL-2 melanoma = system: SK-MEL-2 melanoma
SK-MEL-28 melanoma = system: SK-MEL-28 melanoma
SK-MEL-5 melanoma = system: SK-MEL-5 melanoma
SK-OV-3 ovarian = system: SK-OV-3 ovarian
SN12C renal = system: SN12C renal
SNB-19 CNS = system: SNB-19 CNS
SR leukemia = system: SR leukemia
SW-620 colon = system: SW-620 colon
T-47D breast = system: T-47D breast
TK-10 renal = system: TK-10 renal
U251 CNS = system: U251 CNS
UACC-257 melanoma = system: UACC-257 melanoma
UACC-62 melanoma = system: UACC-62 melanoma
UO-31 renal = system: UO-31 renal
NCI-H226 lung = system: NCI-H226 lung
SF-268 CNS = system: SF-268 CNS
SNB-75 CNS = system: SNB-75 CNS

SMILES: CCCCNC(=O)c1cc(S(=O)(=O)n2cc[nH]c2=O)c(SC)cc1Cl
- TGI (786-0 renal): > 100 µM
- TGI (A498 renal): 97 µM
- TGI (A549 NSCLC): > 100 µM
- TGI (ACHN renal): > 100 µM
- TGI (BT-549 breast): > 100 µM
- TGI (CAKI-1 renal): > 100 µM
- TGI (CCRF-CEM leukemia): > 100 µM
- TGI (COLO 205 colon): > 100 µM
- TGI (DU-145 prostate): > 100 µM
- TGI (EKVX NSCLC): > 100 µM
- TGI (HCC-2998 colon): > 100 µM
- TGI (HCT-116 colon): > 100 µM
- TGI (HCT-15 colon): > 100 µM
- TGI (HL-60(TB) leukemia): > 100 µM
- TGI (HOP-62 NSCLC): > 100 µM
- TGI (HS 578T breast): > 100 µM
- TGI (HT29 colon): > 100 µM
- TGI (IGROV1 ovarian): > 100 µM
- TGI (K-562 leukemia): > 100 µM
- TGI (KM12 colon): > 100 µM
- TGI (LOX IMVI melanoma): > 100 µM
- TGI (M14 melanoma): > 100 µM
- TGI (MALME-3M melanoma): > 100 µM
- TGI (MCF7 breast): > 100 µM
- TGI (MDA-MB-231 breast): > 100 µM
- TGI (MDA-MB-435): > 100 µM
- TGI (MDA-N): > 100 µM
- TGI (MOLT-4 leukemia): > 100 µM
- TGI (NCI-H23 lung): > 100 µM
- TGI (NCI-H460 lung): > 100 µM
- TGI (NCI-H522 lung): > 100 µM
- TGI (NCI/ADR-RES ovarian): > 100 µM
- TGI (OVCAR-3 ovarian): > 100 µM
- TGI (OVCAR-4 ovarian): > 100 µM
- TGI (OVCAR-5 ovarian): > 100 µM
- TGI (OVCAR-8 ovarian): > 100 µM
- TGI (PC-3 prostate): > 100 µM
- TGI (RPMI-8226 leukemia): > 100 µM
- TGI (RXF 393 renal): > 100 µM
- TGI (SF-295 CNS): > 100 µM
- TGI (SF-539 CNS): > 100 µM
- TGI (SK-MEL-2 melanoma): > 100 µM
- TGI (SK-MEL-28 melanoma): > 100 µM
- TGI (SK-MEL-5 melanoma): > 100 µM
- TGI (SK-OV-3 ovarian): > 100 µM
- TGI (SN12C renal): > 100 µM
- TGI (SNB-19 CNS): > 100 µM
- TGI (SR leukemia): > 100 µM
- TGI (SW-620 colon): > 100 µM
- TGI (T-47D breast): > 100 µM
- TGI (TK-10 renal): > 100 µM
- TGI (U251 CNS): > 100 µM
- TGI (UACC-257 melanoma): > 100 µM
- TGI (UACC-62 melanoma): > 100 µM
- TGI (UO-31 renal): > 100 µM

SMILES: CC(=O)OCC1OC(Nc2ccc3nc(C)n(-c4ccccc4)c(=O)c3c2)C(OC(C)=O)C(OC(C)=O)C1OC(C)=O (stereo not drawn)
- TGI (786-0 renal): > 50 µM
- TGI (A498 renal): > 50 µM
- TGI (ACHN renal): > 50 µM
- TGI (BT-549 breast): > 50 µM
- TGI (CAKI-1 renal): > 50 µM
- TGI (COLO 205 colon): > 50 µM
- TGI (DU-145 prostate): > 50 µM
- TGI (EKVX NSCLC): > 50 µM
- TGI (HCC-2998 colon): > 50 µM
- TGI (HCT-116 colon): > 50 µM
- TGI (HCT-15 colon): > 50 µM
- TGI (HL-60(TB) leukemia): > 50 µM
- TGI (HOP-62 NSCLC): > 50 µM
- TGI (HS 578T breast): > 50 µM
- TGI (HT29 colon): > 50 µM
- TGI (IGROV1 ovarian): > 50 µM
- TGI (K-562 leukemia): > 50 µM
- TGI (KM12 colon): > 50 µM
- TGI (LOX IMVI melanoma): > 50 µM
- TGI (MALME-3M melanoma): > 50 µM
- TGI (MCF7 breast): > 50 µM
- TGI (MDA-MB-231 breast): > 50 µM
- TGI (MDA-MB-435): > 50 µM
- TGI (MDA-N): > 50 µM
- TGI (MOLT-4 leukemia): > 50 µM
- TGI (NCI-H226 lung): > 50 µM
- TGI (NCI-H23 lung): > 50 µM
- TGI (NCI-H460 lung): > 50 µM
- TGI (NCI-H522 lung): > 50 µM
- TGI (NCI/ADR-RES ovarian): > 50 µM
- TGI (OVCAR-3 ovarian): > 50 µM
- TGI (OVCAR-4 ovarian): > 50 µM
- TGI (OVCAR-5 ovarian): > 50 µM
- TGI (OVCAR-8 ovarian): > 50 µM
- TGI (PC-3 prostate): > 50 µM
- TGI (RPMI-8226 leukemia): 20.4 µM
- TGI (RXF 393 renal): > 50 µM
- TGI (SF-268 CNS): > 50 µM
- TGI (SF-295 CNS): > 50 µM
- TGI (SK-MEL-2 melanoma): > 50 µM
- TGI (SK-MEL-28 melanoma): > 50 µM
- TGI (SK-MEL-5 melanoma): > 50 µM
- TGI (SN12C renal): > 50 µM
- TGI (SNB-19 CNS): > 50 µM
- TGI (SNB-75 CNS): > 50 µM
- TGI (SR leukemia): > 50 µM
- TGI (SW-620 colon): > 50 µM
- TGI (T-47D breast): > 50 µM
- TGI (TK-10 renal): > 50 µM
- TGI (U251 CNS): > 50 µM
- TGI (UACC-257 melanoma): > 50 µM
- TGI (UACC-62 melanoma): > 50 µM
- TGI (UO-31 renal): > 50 µM
